The values below come from patent publication US10919885B2, “Compounds and uses thereof” (Yumanity Therapeutics, Inc., priority 2018, dated 2021).

Each structure is given as a SMILES string.

For one assay, the target named is human SCD1 (Homo sapiens (Human), UniProt O00767). Put plainly: Yeast growth assay, strain expressing human SCD1 as the sole desaturase (reduced growth as surrogate for SCD inhibition). Format: cell-based. The conditions noted are these: yeast with OLE1 deleted expressing human SCD1 from a plasmid; growth read as OD600 after 40 h at 30° C.; top drug concentration 33.3 μM. The essentials: (§1)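 Human SCD1 or SCD5 expressed from a plasmid in OLE1-deleted yeast as the sole desaturase. Cells washed free of Tween and fatty acids, grown with compound in SD-Ura glucose medium 40 h at 30 °C; growth measured as OD600, reduced growth taken as SCD inhibition.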

A further assay has as its target human SCD5 (Homo sapiens (Human), UniProt Q86SK9). Put plainly: Yeast growth assay, strain expressing human SCD5 as the sole desaturase (reduced growth as surrogate for SCD inhibition). Type of assay: cell-based. The note with it: yeast with OLE1 deleted expressing human SCD5 from a plasmid; growth read as OD600 after 40 h at 30° C.; top drug concentration 33.3 μM. The method, boiled down:
as §1

As a reminder, the IC50 is the midpoint of a concentration-inhibition curve. Low readings indicate higher potency, high ones lower potency.

human SCD1, sequence (O00767 whole entry): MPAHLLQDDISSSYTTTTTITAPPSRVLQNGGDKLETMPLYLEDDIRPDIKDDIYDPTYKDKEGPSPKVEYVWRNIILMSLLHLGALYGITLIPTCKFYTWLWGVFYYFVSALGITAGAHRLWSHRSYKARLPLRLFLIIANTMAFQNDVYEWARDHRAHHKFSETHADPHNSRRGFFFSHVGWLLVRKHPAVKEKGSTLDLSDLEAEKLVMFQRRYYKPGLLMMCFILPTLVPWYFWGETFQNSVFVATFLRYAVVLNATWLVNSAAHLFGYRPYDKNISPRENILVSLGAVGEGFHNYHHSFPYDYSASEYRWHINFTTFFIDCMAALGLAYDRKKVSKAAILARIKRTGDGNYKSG
human SCD5, sequence (Q86SK9 whole entry): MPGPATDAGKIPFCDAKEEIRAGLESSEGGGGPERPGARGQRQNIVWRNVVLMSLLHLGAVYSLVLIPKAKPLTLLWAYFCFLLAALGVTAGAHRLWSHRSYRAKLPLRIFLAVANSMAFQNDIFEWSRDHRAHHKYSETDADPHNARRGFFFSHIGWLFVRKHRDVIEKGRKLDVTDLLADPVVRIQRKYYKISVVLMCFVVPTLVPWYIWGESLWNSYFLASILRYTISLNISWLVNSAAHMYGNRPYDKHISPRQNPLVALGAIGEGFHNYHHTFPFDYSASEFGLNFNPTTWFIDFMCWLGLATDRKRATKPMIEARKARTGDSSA

In the case of `O=C(Nc1cnn(Cc2ccccc2)c1)c1cc(-c2ccncc2F)on1` [Compound 147, N-(1-benzyl-1H-pyrazol-4-yl)-5-(3-fluoropyridin-4-yl)isoxazole-3-carboxamide], the IC50 was more than 45 µM on human SCD1 and 7.4 µM against human SCD5.
In the same order, the values of `COc1ccc(-c2cc(C(=O)N3CCCC3c3ccc(OC)cc3)no2)cc1` (centres unmarked) [Compound 376] are more than 45 µM and more than 45 µM.
In the same order, the values of `Cc1nn(C)c2cc(-c3conc3CN3C(=O)OCC3c3ccccc3)ccc12` (centres unmarked) [Compound 464] are more than 45 µM and more than 45 µM.
`O=C(c1cc(-c2ccccc2)on1)N1CC2(C=C(c3ccccc3)C2)C1` [Compound 225, (6-phenyl-2-azaspiro[3.3]hept-6-en-2-yl)-(5-phenylisoxazol-3-yl)methanone]: the IC50 on human SCD1 was more than 45 µM; at human SCD5 it was 6.41 µM.
As to `Cc1nn(Cc2ccc(Cl)c(Cl)c2)cc1NC(=O)c1cc(-c2ccco2)on1` [Compound 17, N-(1-(3,4-dichlorobenzyl)-3-methyl-1H-pyrazol-4-yl)-5-(furan-2-yl)isoxazole-3-carboxamide], the results for the IC50 against human SCD1 and at human SCD5 were more than 45 µM and 4.87 µM, respectively.
On to `O=C(Nc1cnn(Cc2cccc(F)c2)c1)c1cc(CO)on1` [Compound 191], for which the IC50 against human SCD1 and on human SCD5 was more than 45 µM each time.
For the compound `O=C(c1cc(-c2ccc3c(c2)OCO3)on1)N1CCCC1c1cnccn1` (centres unmarked) [Compound 418], the IC50 against human SCD1 and against human SCD5 was more than 45 µM in each case.
In the case of `CN(C)CC(c1ccccc1)n1cc(NC(=O)c2cc(-c3ccccc3)on2)cn1` (centres unmarked) [Compound 113], the IC50 against human SCD1 and against human SCD5 was more than 45 µM each time.
In the case of `O=C(NC1CCNC1)c1cc(-c2ccco2)on1` (centres unmarked) [Compound 336], the IC50 against human SCD1 and against human SCD5 was more than 45 µM in each case.
In the case of `O=C(c1cc(-c2ccc3c(c2)OCO3)on1)N1CC(Nc2ccccc2)C1` [Compound 221], the IC50 against human SCD1 and at human SCD5 was more than 45 µM in each case.
Consider `O=C(c1cc(-c2ccccn2)on1)N1CC(c2ccccc2)C1` [Compound 233, (3-phenylazetidin-1-yl)(5-(pyridin-2-yl)isoxazol-3-yl)methanone], for which the IC50 against human SCD1 was determined as 2.61 µM; against human SCD5, 3.12 µM.
As to `CN1CCC(C2CCCN2C(=O)c2cc(-c3ccc4c(c3)OCO4)on2)CC1` (centres unmarked) [Compound 424], the IC50 at human SCD1 and against human SCD5 was more than 45 µM each time.
As to `O=C(Nc1cnn(CC2CC2)c1)c1cc(-c2ccccc2)on1` [Compound 41], the IC50 at human SCD1 and against human SCD5 was more than 45 µM in each case.
Consider `O=C(NC1CN(C(=O)c2cc(-c3ccccc3)on2)C1)c1ccccc1` [Compound 240], for which the IC50 on human SCD1 and against human SCD5 was more than 45 µM throughout.
As for `N#Cc1ccc(-c2cc(C(=O)N3CCC(c4ccccc4)CC3)no2)cc1` [Compound 316, 4-(3-(4-phenylpiperidine-1-carbonyl)isoxazol-5-yl)benzonitrile], the figures for the IC50 against human SCD1 and against human SCD5 were more than 45 µM and 0.7 µM, respectively.
In the same order, the values of `O=C(Nc1cnn(Cc2ccccc2)c1)c1cc(-c2ccccn2)no1` [Compound 129] are more than 45 µM and more than 45 µM.
In the case of `CSCCC(c1ccccc1)n1cc(NC(=O)c2cc(-c3ccccc3)on2)cn1` (centres unmarked) [Compound 70], the IC50 against human SCD1 and on human SCD5 was more than 45 µM in each case.
With `O=C(c1cc(-c2ccccn2)on1)N1CCC(c2ccccc2)CC1` [Compound 318], the IC50 is more than 45 µM against human SCD1 and 14.1 µM at human SCD5.
In the same order, the values of `CC1(c2ccccc2)CCN(C(=O)c2cc(-c3ccc4c(c3)OCO4)on2)CC1` [Compound 290, 1-[5-(2H-1,3-benzodioxol-5-yl)-1,2-oxazole-3-carbonyl]-4-methyl-4-phenylpiperidine] are more than 45 µM and 2.94 µM.
In the same order, the values of `O=C(c1cc(-c2ccc3nccnc3c2)on1)N1CCC[C@H]1c1ccccc1` [Compound 450] are more than 45 µM and more than 45 µM.
With `N#Cc1ccc(-c2cc(C(=O)N3CCC[C@H]3c3ccccc3)no2)cc1` [Compound 404], the IC50 against human SCD1 and on human SCD5 was more than 45 µM in each case.
Turning to `N#Cc1ccccc1-c1cc(C(=O)N2CCC(c3ccccc3)CC2)no1` [Compound 326, 2-(3-(4-phenylpiperidine-1-carbonyl)isoxazol-5-yl)benzonitrile], the IC50 against human SCD1 is more than 45 µM; on human SCD5, 5.7 µM.
In the same order, the values of `O=C(c1cc(-c2ccc3c(c2)OCO3)on1)N1CCC1c1ccccc1F` (centres unmarked) [Compound 218] are more than 45 µM and more than 45 µM.
In the same order, the values of `O=C(c1ccncc1)N1CCN(C(=O)c2cc(-c3ccc4c(c3)OCO4)on2)CC1` [Compound 276] are more than 45 µM and more than 45 µM.
Take `O=C(c1cc(-c2ccc3c(c2)OCO3)on1)N1CC(c2cccc(F)c2)C1` [Compound 239, (5-(benzo[d][1,3]dioxol-5-yl)isoxazol-3-yl)(3-(3-fluorophenyl)azetidin-1-yl)methanone]: the 50% inhibitory concentration (IC50) turned out to be 0.866 µM on human SCD1 and 1.92 µM against human SCD5.
In the same order, the values of `O=C(Nc1cnn(Cc2cccc(F)c2)c1)c1cc(C2(O)CCC2)on1` [Compound 100] are 3.1 µM and 20 µM.
As for `O=C(c1cc(-c2ccccc2)on1)N1CCN(c2cccc(F)c2)CC1` [Compound 294], the IC50 is 0.21 µM on human SCD1 and more than 45 µM at human SCD5.
Turning to `C#Cc1cc(C(=O)Nc2cnn(Cc3cccc(F)c3)c2)no1` [Compound 154, 5-ethynyl-N-(1-(3-fluorobenzyl)-1H-pyrazol-4-yl)isoxazole-3-carboxamide], the results for the IC50 on human SCD1 and at human SCD5 were 1.6 µM and 5.2 µM, respectively.
Take `O=C(Nc1cnn(Cc2cc(F)ccc2C(F)(F)F)c1)c1cc(-c2ccccc2)on1` [Compound 74]: the IC50 against human SCD1 and against human SCD5 was more than 45 µM each time.
For `O=C(c1noc2c1CCCC2)N1CC(Cc2ccccc2)C1` [Compound 253, 3-(3-benzylazetidine-1-carbonyl)-4,5,6,7-tetrahydro-1,2-benzoxazole], the IC50 is more than 45 µM against human SCD1 and 13 µM on human SCD5.
With `O=C(Nc1cnn(Cc2cc(F)ccc2C(F)(F)F)c1)c1cc(-c2ccccn2)on1` [Compound 77], the IC50 at human SCD1 and on human SCD5 was more than 45 µM in each case.
As for `Cn1ncc2ccc(-c3cc(C(=O)N4CC(c5ccccc5)C4)no3)cc21` [Compound 232, (5-(1-methyl-1H-indazol-6-yl)isoxazol-3-yl)(3-phenylazetidin-1-yl)methanone], the IC50 on human SCD1 is more than 45 µM; at human SCD5 it was 1.63 µM.
For `COc1ccc(-c2cc(C(=O)N3CC(c4ccccc4)C3)no2)nc1` [Compound 242, (5-(5-methoxypyridin-2-yl)isoxazol-3-yl)(3-phenylazetidin-1-yl)methanone], the IC50 worked out at 0.264 µM against human SCD1 and 0.305 µM against human SCD5.
As for `O=C(c1cc(-c2ccncc2)on1)N1CCC(c2ccccc2)CC1` [Compound 313, (4-phenylpiperidin-1-yl)(5-(pyridin-4-yl)isoxazol-3-yl)methanone, trifluoroacetic acid], the IC50 is 0.41 µM at human SCD1 and 1.54 µM at human SCD5.
Take `O=C(c1cc(-c2ccc3c(c2)OCO3)on1)N1CCCC1c1ccccn1` (centres unmarked) [Compound 361]: the IC50 against human SCD1 and on human SCD5 was more than 45 µM in each case.
`O=C(c1cc(-c2ccc3c(c2)OCO3)on1)N1CCCC1c1ncccc1Br` (centres unmarked) [Compound 447]: the IC50 at human SCD1 and against human SCD5 was more than 45 µM in each case.
Take `O=C(Nc1noc(Cc2ccccc2)n1)c1cc(-c2ccccc2)on1` [Compound 79]: the IC50 on human SCD1 and on human SCD5 was more than 45 µM each time.
With `CCc1cc(C(=O)Nc2cnn(Cc3cccc(F)c3)c2)no1` [Compound 104, 5-ethyl-N-(1-(3-fluorobenzyl)-1H-pyrazol-4-yl)isoxazole-3-carboxamide], the IC50 against human SCD1 turned out to be 0.066 µM; against human SCD5 it was 1 µM.
In the same order, the values of `CN(C(=O)c1cc(-c2ccccc2)on1)c1cnn(Cc2cc(F)ccc2C(F)(F)F)c1` [Compound 76] are more than 45 µM and more than 45 µM.
As for `O=C(c1cc(-c2ccccc2)on1)N1CCC(c2ccccc2)C1` (centres unmarked) [Compound 330], the IC50 on human SCD1 was more than 45 µM; against human SCD5, 2.6 µM.
Take `O=C(c1cc(-c2ccccc2)on1)N1CCC2(CCNC2)C1` (centres unmarked) [Compound 340]: the IC50 at human SCD1 and on human SCD5 was more than 45 µM each time.
On to `Cc1nn(C)c2cc(-c3cc(CN4C(=O)OCC4c4ccccc4)no3)ccc12` (centres unmarked) [Compound 273], for which the IC50 at human SCD1 is more than 45 µM; on human SCD5, 39.2 µM.
As for `CS(=O)(=O)CCC(c1ccccc1)n1cc(NC(=O)c2cc(-c3ccccc3)on2)cn1` (centres unmarked) [Compound 75], the IC50 on human SCD1 and against human SCD5 was more than 45 µM throughout.
With `COc1ccc(C2CCCN2C(=O)c2cc(-c3ccc(C(F)(F)C(F)(F)F)cc3)on2)cc1` (centres unmarked) [Compound 392], the IC50 on human SCD1 and on human SCD5 was more than 45 µM each time.
In the case of `O=C(c1cc(-c2ccc3c(c2)OCO3)on1)N1CCCC1Cc1ccccc1` (centres unmarked) [Compound 434], the IC50 on human SCD1 is more than 45 µM; on human SCD5, 4.67 µM.
In the same order, the values of `CN(Cc1cccc(F)c1)C(=O)c1cc(-c2ccccc2)on1` [Compound 9] are more than 45 µM and 15.7 µM.
Turning to `Cc1nn(C)c(C)c1NC(=O)c1cc(-c2ccco2)on1` [Compound 1], the half-inhibitory concentration (IC50) at human SCD1 and against human SCD5 was more than 45 µM each time.
For the compound `O=C(Nc1cnn(Cc2cccc(F)c2)c1)c1cc(-c2cnccn2)on1` [Compound 45], the IC50 against human SCD1 is 23.1 µM; against human SCD5, more than 45 µM.
Consider `O=C(Nc1cnn(Cc2ccccc2)c1)c1cc(-c2cccc3c2cnn3C2COC2)on1` [Compound 97], for which the IC50 against human SCD1 and against human SCD5 was more than 45 µM each time.
